From US11576897B2, “Therapeutic agent for non-motor symptoms associated with Parkinson's disease” (priority 2017, dated 2023)
Where a name gives a salt, the structure may show the parent alone. Read-outs that look alike come from different tables or passages of the source. Marks after values point to notes of the source that are not given here.

Legend:
human 5-HT2A receptor = human 5-HT2A receptor (Homo sapiens (Human), UniProt P28223); experiment: biochemical; type: binding
[1] = target: human serotonin transporter (SERT) (Homo sapiens (Human), UniProt P31645); experiment: Human serotonin transporter (SERT) binding test
human 5-HT2C receptor = human 5-HT2C receptor (Homo sapiens (Human), UniProt P28335)
Sequence of human 5-HT2C receptor (P28335 whole entry, looked up): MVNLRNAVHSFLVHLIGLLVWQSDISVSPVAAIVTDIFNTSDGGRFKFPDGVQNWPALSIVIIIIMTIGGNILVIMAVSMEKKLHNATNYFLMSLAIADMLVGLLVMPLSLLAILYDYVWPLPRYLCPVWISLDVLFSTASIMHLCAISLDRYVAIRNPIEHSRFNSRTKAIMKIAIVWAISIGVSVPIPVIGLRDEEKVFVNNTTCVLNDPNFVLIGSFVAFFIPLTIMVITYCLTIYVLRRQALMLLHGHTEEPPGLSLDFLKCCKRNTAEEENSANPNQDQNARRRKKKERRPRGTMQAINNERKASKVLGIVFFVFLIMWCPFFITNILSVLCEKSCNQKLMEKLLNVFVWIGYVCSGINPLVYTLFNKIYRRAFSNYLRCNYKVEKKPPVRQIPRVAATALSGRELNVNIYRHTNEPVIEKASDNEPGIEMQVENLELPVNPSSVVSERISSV

human D2L receptor = human D2L receptor (Homo sapiens (Human), UniProt P14416); experiment: Dopamine D2L receptor binding test
Sequence of human D2L receptor (P14416 whole entry): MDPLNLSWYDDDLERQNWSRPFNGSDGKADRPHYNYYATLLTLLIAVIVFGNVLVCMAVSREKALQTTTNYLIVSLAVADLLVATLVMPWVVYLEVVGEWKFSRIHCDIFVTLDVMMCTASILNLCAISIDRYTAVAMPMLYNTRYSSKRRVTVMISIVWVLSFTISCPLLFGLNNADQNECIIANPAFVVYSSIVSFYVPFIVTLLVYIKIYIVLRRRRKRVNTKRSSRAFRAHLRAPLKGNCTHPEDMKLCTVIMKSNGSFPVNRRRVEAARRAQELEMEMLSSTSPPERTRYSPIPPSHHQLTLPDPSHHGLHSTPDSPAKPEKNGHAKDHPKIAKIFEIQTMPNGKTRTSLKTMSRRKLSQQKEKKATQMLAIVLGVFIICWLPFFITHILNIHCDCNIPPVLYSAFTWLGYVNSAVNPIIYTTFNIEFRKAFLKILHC

[2] = target: serotonin 5-HT2A receptor (Rattus norvegicus (Rat), UniProt P14842); experiment: Rat tryptamine-induced forelimb clonic convulsion model; type: in vivo; conditions: orally or subcutaneously 60 minutes before tryptamine 25 mg/kg intravenously, SD-male rats
Procedure: Test 2: Rat Tryptamine-Induced Forelimb Clonic Convulsion Model for Evaluation of In Vivo Serotonin 5-HT2A Receptor Antagonism
Evaluation was conducted in a rodent tryptamine-induced forelimb clonic convulsion model which has been known as one of the methods for assessing the serotonin 5-HT2A receptor antagonism in vivo.
Seven-week-old SD-male rats were used. A dose solution for a test compound was prepared with 0.5% methylcellulose solution or saline for a solvent. A test compound was used in the form of a dose solution obtained by mixing with 0.5% methylcellulose solution to get cloudy (for oral administration) or dissolving in saline (for subcutaneous administration). Tryptamine was used and dissolved in saline as a substance inducing clonic convulsion.
A dose solution of a test compound or a solvent only was administered orally or subcutaneously to rats at the start of the test, and after 60 minutes of the administration, a saline solution containing tryptamine 25 mg/kg was administered intravenously to rats. Rats were transferred to an observation cage right after the administration of tryptamine, and their forelimb clonic convulsion was evaluated for 3 minutes.
The average inhibition ratio of each individual calculated from the following equation was deemed to be the inhibition ratio of each administration group. Inhibition ratio of each individual=(Average score of the solvent-administered group−Score of each individual)/Average score of the solvent-administered group×100
Statistical analysis of the test results was conducted by the following procedures with Stat Preclinica (Takumi Information Technology):
1) Jonckheere-Terpstra test was conducted in the solvent-administered group and test compound-administered group with the forelimb clonic convulsion score as indicator. […] 2) Non-parametric Dunnett's multiple comparison (Joint Ranking)-measured value was conducted between the solvent-administered group and test compound-administered group with the forelimb clonic convulsion score as indicator. […]

[3] = [3H]-ketanserin, human 5-HT2A receptor-expressed CHO cell membrane, read-out: 5-HT2A receptor binding inhibition constant Ki
[4] = [3H]-citalopram, h-SERT/CHO cell membrane, read-out: h-SERT binding inhibition constant Ki
[5] = read-out: 5-HT2A receptor binding inhibition constant Ki

SMILES | Ki (human 5-HT2A receptor; [3]) | Ki [1, 4] | also measured
[2H]C([2H])([2H])NCc1cc(OCc2ccccc2)n(CC2CCCCC2)n1 [Example 494, 1-[5-(Benzyloxy)-1-(cyclohexylmethyl)-1H-pyrazol-3-yl]-N-(^2H3)methylmethanamine] | – | – | Ki (human 5-HT2A receptor): 3.6 nM; Ki [1]: 1.1 nM; Ki (human 5-HT2C receptor): 7.1 nM
CNCc1cc(OCc2ccccc2Cl)n(C(C)C2CCCCC2)n1 (stereo not shown) [Example 296, 1-{5-[(2-chlorobenzyl)oxy]-1-(1-cyclohexylethyl)-1H-pyrazol-3-yl}-N-methylmethanamine] | 2.1 nM | – | Ki [1]: 0.91 nM; Ki (human 5-HT2C receptor): 6.2 nM
CNCc1cc(OCc2cc(F)ccc2F)n(CC(C)(C)C)n1 [Example 504, 1-{5-[(2,5-Difluorobenzyl)oxy]-1-(2,2-dimethylpropyl)-1H-pyrazol-3-yl}-N-methylmethanamine monophosphate dihydrate] | – | – | IC50 (human D2L receptor): > 1000 nM
CNCc1cc(OCc2cc(F)ccc2F)n(CC2CCCC2)n1.Cl [Example 147, 1-{1-(cyclopentylmethyl)-5-[(2,5-difluorobenzyl)oxy]-1H-pyrazol-3-yl}-N-methylmethanamine] | 2.2 nM | 0.61 nM | Inhibition ratio ([2]; dose 1 mg/kg): 46%; Inhibition ratio ([2]; dose 3 mg/kg): 46%; Inhibition ratio ([2]; dose 10 mg/kg): 71%**
Cl.[2H]C([2H])(Oc1cc(CNC)nn1CC1CCCC1)c1cc(Cl)ccc1F [Example 496, 1-[5-{[(5-Chloro-2-fluorophenyl) (^2H2)methyl]oxy}-1-(cyclopentylmethyl)-1H-pyrazol-3-yl]-N-methylmethanamine Hydrochloride] | – | – | Ki (human 5-HT2A receptor): 1.7 nM; Ki [1]: 2 nM; Ki (human 5-HT2C receptor): 1.1 nM
CNCc1cc(OCc2cc(Cl)ccc2F)n(CCC(C)(C)OC)n1 [Example 275, 1-{5-[(5-chloro-2-fluorobenzyl)oxy]-1-(3-methoxy-3-methylbutyl)-1H-pyrazol-3-yl}-N-methylmethanamine] | 5.9 nM | – | IC50 (human D2L receptor): > 1000 nM
[2H]C([2H])([2H])NC([2H])([2H])c1cc(OCc2ccccc2)n(CC2CCCCC2)n1 [Example 493, 1-[5-(Benzyloxy)-1-(cyclohexylmethyl)-1H-pyrazol-3-yl]-N-(^2H3)methyl(^2H2) methanamine] | – | – | Ki (human 5-HT2A receptor): 2.3 nM; Ki [1]: 1.1 nM; Ki (human 5-HT2C receptor): 7.2 nM
[2H]C([2H])(NC)c1cc(OCc2ccccc2)n(CC2CCCCC2)n1 [Example 492, 1-[5-(Benzyloxy)-1-(cyclohexylmethyl)-1H-pyrazol-3-yl]-N-methyl(^2H2)methanamine] | – | – | Ki (human 5-HT2A receptor): 2.9 nM; Ki [1]: 1.4 nM; Ki (human 5-HT2C receptor): 6.8 nM
CNCc1cc(OCc2cc(F)ccc2F)n(CCC(C)(C)C)n1 [Example 500, 1-{5-[(2,5-Difluorobenzyl)oxy]-1-(3,3-dimethylbutyl)-1H-pyrazol-3-yl}-N-methylmethanamine Monophosphate] | – | – | IC50 (human D2L receptor): > 1000 nM
CNCc1cc(OCc2ccccc2C#N)n(CC2CCCC2)n1 [Example 162, 2-[({1-(cyclopentylmethyl)-3-[(methylamino)methyl]-1H-pyrazol-5-yl}oxy)methyl]benzonitrile] | – | 7.8 nM | Ki (human 5-HT2A receptor; [5]): 2.7 nM
CNCc1cc(OCc2ccccc2C)n(C(C)C2CCCCC2)n1 (stereo not shown) [Example 298, 1-{1-(1-cyclohexylethyl)-5-[(2-methylbenzyl)oxy]-1H-pyrazol-3-yl}-N-methylmethanamine] | 3.3 nM | 0.56 nM | –
CNCc1cc(OCc2ccccc2)n(CC2(C)CCCCC2)n1 [Example 331, 1-{5-(benzyloxy)-1-[(1-methylcyclohexyl)methyl]-1H-pyrazol-3-yl}-N-methylmethanamine] | 2.8 nM | 1.3 nM | –
CNCc1cc(OCc2ccc(F)cc2C)n(C(C)C2CCCCC2)n1 (stereo not shown) [Example 302, 1-{1-(1-cyclohexylethyl)-5-[(4-fluoro-2-methylbenzyl)oxy]-1H-pyrazol-3-yl}-N-methylmethanamine] | 0.94 nM | 1.4 nM | –
CNCc1cc(OCc2cc(Cl)ccc2F)n(C(C)C2CCCC2)n1 (stereo not shown) [Example 291, 1-{5-[(5-chloro-2-fluorobenzyl)oxy]-1-(1-cyclopentylethyl)-1H-pyrazol-3-yl}-N-methylmethanamine] | 2.5 nM | 1.2 nM | –
CNCc1cc(OCc2ccc(F)cc2F)n(C(C)C2CCCCC2)n1 (stereo not shown) [Example 300, 1-{1-(1-cyclohexylethyl)-5-[(2,4-difluorobenzyl)oxy]-1H-pyrazol-3-yl}-N-methylmethanamine] | 0.57 nM | 1.8 nM | –
CNCc1nn(CC2CCCCC2)c(OCc2cc(F)ccc2F)c1F [Example 351] | 15 nM | 0.98 nM | –
[2H]C([2H])(Oc1cc(CNC)nn1CC1CCCC1)c1cc(F)ccc1F [Example 495, 1-[1-(Cyclopentylmethyl)-5-{[(2,5-difluorophenyl) (^2H2)methyl]oxy}-1H-pyrazol-3-yl]-N-methylmethanamine Hydrochloride] | 2 nM | – | Ki [1]: 0.24 nM; Ki (human 5-HT2C receptor): 2.5 nM
CNCc1cc(OCc2cccc(Cl)c2)n(CC2OC3CCC2CC3)n1 (stereo not shown) [Example 508, 1-{5-[(3-chlorobenzyl)oxy]-1-(2-oxabicyclo[2.2.2]oct-3-ylmethyl)-1H-pyrazol-3-yl}-N-methylmethanamine] | 9.4 nM | 8.1 nM | –
CNCc1cc(OCc2ccc(F)cc2)n(C(C)C2CCCCC2)n1 (stereo not shown) [Example 295, 1-{1-(1-cyclohexylethyl)-5-[(4-fluorobenzyl)oxy]-1H-pyrazol-3-yl}-N-methylmethanamine] | 0.74 nM | 0.95 nM | –
CNCc1cc(OCc2cc(Cl)ccc2F)n(C(C)C2CCCCC2)n1 (stereo not shown) [Example 304, 1-{5-[(5-chloro-2-fluorobenzyl)oxy]-1-(1-cyclohexylethyl)-1H-pyrazol-3-yl}-N-methylmethanamine] | – | 1.3 nM | Ki (human 5-HT2A receptor; [5]): 1.4 nM
CNCc1cc(OCc2ccccc2F)n(C(C)C2CCCCC2)n1 (stereo not shown) [Example 293, 1-{1-(1-cyclohexylethyl)-5-[(2-fluorobenzyl)oxy]-1H-pyrazol-3-yl}-N-methylmethanamine] | 1.1 nM | 0.67 nM | –
